Measured values from patent publication US20230143612A1 (Arbutus Biopharma Corporation, priority 2020, published 2023).

Target: PD-L1 His protein / PD-1 Fc protein (Homo sapiens, UniProt Q9NZQ7)
Experiment: HTRF Assay (PD-1/PD-L1 interaction)
Type: binding
Conditions: PD-L1 His 6 nM, PD-1 Fc 6 nM
Procedure, shortened: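 Compounds tested from 20 μM down to 0.001 μM (3-fold) against 6 nM PD-L1 His and 6 nM PD-1 Fc, 15 min room temperature incubation. Detection after 1 h at room temperature with Tb cryptate anti-6HIS and XL665 anti-human IgG reagents (mixture at 0.35 nM and 6.7 nM), HTRF signal.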

Sequence of PD-L1 His protein / PD-1 Fc protein (Q9NZQ7 19-238 limits assumed): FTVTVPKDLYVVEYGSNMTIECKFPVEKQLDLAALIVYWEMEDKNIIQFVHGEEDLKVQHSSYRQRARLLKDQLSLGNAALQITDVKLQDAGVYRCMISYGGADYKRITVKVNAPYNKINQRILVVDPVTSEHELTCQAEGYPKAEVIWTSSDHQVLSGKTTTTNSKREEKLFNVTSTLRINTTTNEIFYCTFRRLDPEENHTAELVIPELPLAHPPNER

| SMILES | IC50 |
| --- | --- |
| COc1nc(-c2cccc(-c3cccc(-c4ccc5ncc(CNC[C@@H]6CCC(=O)N6)n5c4)c3Cl)c2Cl)ccc1CNC[C@@H]1CCC(=O)N1 [Example 389, (5S)-5-[[[6-[2-Chloro-3-[2-chloro-3-[3-[[[(2S)-5-oxopyrrolidin-2-yl]methylamino]methyl]imidazo[1,2-a]pyridin-6-yl]phenyl]phenyl]-2-methoxy-3-pyridyl]methylamino]methyl]pyrrolidin-2-one] | 40 nM |
| COc1nc(-c2cccc(-c3cccc(-c4ccn5c(=O)c(CNCCNC(C)=O)cnc5c4)c3Cl)c2Cl)ccc1CNCCNC(C)=O [Example 69, N-(2-(((6-(3′-(3-(((2-Acetamidoethyl)amino)methyl)-4-oxo-4H-pyrido[1,2-a]pyrimidin-8-yl)-2,2′-dichloro-[1,1′-biphenyl]-3-yl)-2-methoxypyridin-3-yl)methyl)amino)ethyl)acetamide] | 1.9 nM |
| COc1nc(-c2cccc(-c3cccc(-c4ccc5nc(CN[C@H]6C[C@H](O)C6)cc(=O)n5c4)c3Cl)c2Cl)ccc1CNC[C@@H]1CCC(=O)N1 [Example 221, 7-(2,2′-dichloro-3′-(6-methoxy-5-(((((S)-5-oxopyrrolidin-2-yl)methyl)amino)methyl)pyridin-2-yl)-[1,1′-biphenyl]-3-yl)-2-((((1r,3r)-3-hydroxycyclobutyl)amino)methyl)-4H-pyrido[1,2-a]pyrimidin-4-one] | 0.6 nM |
| COC(=O)C(C)(C)CNCc1cnc2cc(-c3cccc(-c4cccc(-c5ccc(CNC[C@@H]6CCC(=O)N6)c(OC)n5)c4Cl)c3Cl)ccn2c1=O [Example 384, methyl (S)-3-(((8-(2,2′-dichloro-3′-(6-methoxy-5-((((5-oxopyrrolidin-2-yl)-methyl)-amino)-methyl)-pyridin-2-yl)-[1,1′-biphenyl]-3-yl)-4-oxo-4H-pyrido[1,2-a]pyrimidin-3-yl)-methyl)-amino)-2,2-dimethylpropanoate] | 2.7 nM |
| Cc1nc(-c2cccc(-c3cccc(-c4ccn5c(=O)c(CNC[C@@H]6CCC(=O)N6)cnc5c4)c3C)c2Cl)ccc1CNC[C@@H]1CCC(=O)N1 [Example 79, 8-(2′-Chloro-2-methyl-3′-(6-methyl-5-(((((S)-5-oxopyrrolidin-2-yl)methyl)amino)methyl)pyridin-2-yl)-[1,1′-biphenyl]-3-yl)-3-(((((S)-5-oxopyrrolidin-2-yl)methyl)amino)methyl)-4H-pyrido[1,2-a]pyrimidin-4-one] | 2.8 nM |
| CCc1nc2cc(-c3cccc(-c4cccc(-c5ccc(CNC[C@@H]6CCC(=O)N6)c(OC)n5)c4Cl)c3Cl)ccn2c(=O)c1CNC[C@@H]1CCC(=O)N1 [Example 399, 8-(2,2′-Dichloro-3′-(6-methoxy-5-(((((S)-5-oxopyrrolidin-2-yl)methyl)amino)methyl)pyridin-2-yl)-[1,1′-biphenyl]-3-yl)-2-ethyl-3-(((((S)-5-oxopyrrolidin-2-yl)methyl)amino)methyl)-4H-pyrido[1,2-a]pyrimidin-4-one] | 110 nM |
| O=C1CC[C@@H](CNCc2nc3cc(-c4cccc(-c5cccc(-c6ccn7c(=O)c(CNC[C@@H]8CCC(=O)N8)cnc7c6)c5Cl)c4Cl)ccn3c2Cl)N1 [Example 429, 8-[2-Chloro-3-[2-chloro-3-[3-chloro-2-[[[(2S)-5-oxopyrrolidin-2-yl]methylamino]methyl]imidazo[1,2-a]pyridin-7-yl]phenyl]phenyl]-3-[[[(2S)-5-oxopyrrolidin-2-yl]methylamino]methyl]pyrido[1,2-a]pyrimidin-4-one] | 240 nM |
| COc1nc(-c2cccc(-c3cccc(-c4ccn5c(=O)c(CNC[C@H](C)O)cnc5c4)c3Cl)c2Cl)ccc1CNC[C@H](C)O [Example 185, 8-(2,2′-Dichloro-3′-(5-((((S)-2-hydroxypropyl)amino)methyl)-6-methoxypyridin-2-yl)-[1,1′-biphenyl]-3-yl)-3-((((S)-2-hydroxypropyl)amino)methyl)-4H-pyrido[1,2-a]pyrimidin-4-one] | 1.2 nM |
| COc1nc(-c2cccc(-c3cccc(-c4ccn5c(=O)c(CNCC6(CO)CC6)cnc5c4)c3Cl)c2Cl)ccc1CNC[C@@H]1CCC(=O)N1 [Example 301, (S)-8-(2,2′-Dichloro-3′-(6-methoxy-5-((((5-oxopyrrolidin-2-yl)methyl)amino)methyl)pyridin-2-yl)-[1,1′-biphenyl]-3-yl)-3-((((1-(hydroxymethyl)cyclopropyl)methyl)amino)methyl)-4H-pyrido[1,2-a]pyrimidin-4-one] | 40 nM |
| COc1nc(-c2cccc(-c3cccc(-c4cnc5sc(N6CCN(CCO)CC6)nn45)c3Cl)c2Cl)ccc1CNC[C@@H]1CCC(=O)N1 [Example 241, (S)-5-((((6-(2,2′-Dichloro-3′-(2-(4-(2-hydroxyethyl)piperazin-1-yl)imidazo[2,1-b][1,3,4]thiadiazol-5-yl)-[1,1′-biphenyl]-3-yl)-2-methoxypyridin-3-yl)methyl)amino)methyl)pyrrolidin-2-one] | 900 nM |
| CNCCN(C)Cc1cnc2cc(-c3cccc(-c4cccc(-c5ccc(CNC[C@@H]6CCC(=O)N6)c(OC)n5)c4Cl)c3Cl)ccn2c1=O [Example 278, (S)-8-(2,2′-dichloro-3′-(6-methoxy-5-((((5-oxopyrrolidin-2-yl)methyl)amino)methyl)pyridin-2-yl)-[1,1′-biphenyl]-3-yl)-3-((methyl(2-(methylamino)ethyl)amino)methyl)-4H-pyrido[1,2-a]pyrimidin-4-one] | 0.1 nM |
| COc1nc(-c2cccc(-c3cccc(-c4cc5c(=O)n(C)c(CNC[C@H](C)O)nn5c4)c3Cl)c2Cl)ccc1CNC[C@@H]1CCC(=O)N1 [Example 350, 6-(2,2′-Dichloro-3′-(6-methoxy-5-(((((S)-5-oxopyrrolidin-2-yl)methyl)amino)methyl)pyridin-2-yl)-[1,1′-biphenyl]-3-yl)-2-((((S)-2-hydroxypropyl)amino)methyl)-3-methylpyrrolo[2,1-f][1,2,4]triazin-4(3H)-one] | 0.1 nM |
| COc1nc(-c2cccc(-c3cccc(-c4cc5c(=O)n(C)c(CNCC(C)(C)F)nn5c4)c3Cl)c2Cl)ccc1CNC[C@@H]1CCC(=O)N1 [Example 462, (S)-6-(2,2′-Dichloro-3′-(6-methoxy-5-((((5-oxopyrrolidin-2-yl)methyl)amino)methyl)pyridin-2-yl)-[1,1′-biphenyl]-3-yl)-2-(((2-fluoro-2-methylpropyl)amino)methyl)-3-methylpyrrolo[2,1-f][1,2,4]triazin-4(3H)-one] | 58 nM |
| COc1nc(-c2cccc(-c3cccc(-c4ccn5c(=O)c(CN[C@@H](C)C(N)=O)cnc5c4)c3Cl)c2Cl)ccc1CNC[C@@H]1CCC(=O)N1 [Example 260, (2S)-2-[[8-[2-Chloro-3-[2-chloro-3-[6-methoxy-5-[[[(2S)-5-oxopyrrolidin-2-yl]methylamino]methyl]-2-pyridyl]phenyl]phenyl]-4-oxo-pyrido[1,2-a]pyrimidin-3-yl]methylamino]propenamide] | 0.1 nM |
| Cc1c(-c2ccn3c(=O)c(CNC[C@@H]4CCC(=O)N4)cnc3c2)cccc1-c1cccc(-c2ccc(CNC[C@@H]3CCC(=O)N3)c(C(F)(F)F)n2)c1Cl [Example 78, 8-(2′-Chloro-2-methyl-3′-(5-(((((S)-5-oxopyrrolidin-2-yl)methyl)amino)methyl)-6-(trifluoromethyl)pyridin-2-yl)-[1,1′-biphenyl]-3-yl)-3-(((((S)-5-oxopyrrolidin-2-yl)methyl)amino)methyl)-4H-pyrido[1,2-a]pyrimidin-4-one] | 16 nM |
